Here are results for 24 compounds from ChEMBL document CHEMBL1201862, “PubChem BioAssay data set” (2004).

Common to all, as to test: NCI anticancer screen, dose series, 48 h
In assay [1] the test system is KM-20L2.
Assay [2] deals with SNB-78.
Assay [3] has as its system DMS-114.
Assay [4] deals with XF498.
In assay [5] the test system is DLD-1.
The test system of assay [6] is M19-MEL.
Assay [7] concerns DMS-273.
Assay [8] relates to RXF 631.
Assay [9] concerns HOP-18.

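All cell lines were grown in 96-well plates and treated with compound for 48 hours. GI50 = concentration required for 50% inhibition of growth.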 Calls of active or inactive are those of the source. No stated cut-off is given here; in the data, active = GI50 up to about 1.1 µM and inactive = higher.

For the compound `CC(C)=CCC/C(C)=C/Cc1c(O)ccc2c1[nH]c1cc(O)c(C)cc12`, the GI50 in [1] is 13.4 µM (inactive); in assay [2], > 25 µM (inactive); in [3] it was 13.8 µM (inactive); in [4], 24.7 µM (inactive); in assay [5] it was 14.1 µM (inactive); in [6], 15.5 µM (inactive). Further, the GI50 in [7] was 11 µM (inactive).
For `CCOc1ccc(OCC(=O)O)c2c1CCCC2=O`, the GI50 in assay [8], in assay [2], in assay [3], in assay [4], in assay [5] and in [6] was > 100 µM (inactive) throughout. In addition, in assay [7], the GI50 was > 100 µM (inactive).
Take `CCN(CC)/C(=C\Cl)Nc1ccccn1.[O-][Cl+3]([O-])([O-])O`: the GI50 in assay [8], in assay [1], in assay [9], in assay [2], in assay [3] and in [4] was > 100 µM (inactive) throughout. Also, the GI50 in assay [5], in assay [6] and in assay [7] was > 100 µM (inactive) in each case.
With `COc1cc(O)c(C(=O)C2Cc3ccccc32)c(OC)c1` (configuration not stated), the GI50 in [8] is 86.9 µM (inactive); in [1] it was 65.3 µM (inactive); in assay [9], 34.4 µM (inactive); in assay [2] it was > 100 µM (inactive); in assay [3], 27.4 µM (inactive); in [5], 46.2 µM (inactive). Moreover, in [7], the GI50 was 43.4 µM (inactive).
As to `CCN(CCO)CCNc1ccc(C)c2sc3ccccc3c(=O)c12`, the GI50 is 2.59 µM (inactive) in [1]; 11.9 µM (inactive) in [9]; 7.05 µM (inactive) in assay [2]; 7.67 µM (inactive) in assay [3]; 3.31 µM (inactive) in [4]; 3.83 µM (inactive) in assay [5]. The GI50 was 2 µM (inactive) in [6] and 2.36 µM (inactive) in assay [7].
With `Cn1sc2ccccc2c1=S`, the GI50 in assay [1] is 13.7 µM (inactive); in assay [9], 11.2 µM (inactive); in assay [2], 15 µM (inactive); in assay [3], 2.58 µM (inactive); in assay [4], 11.9 µM (inactive); in [5] it was 3.07 µM (inactive). The GI50 in [6] was 4.59 µM (inactive); in [7], 5.64 µM (inactive).
For the compound `Nn1c(-c2ccccc2Cl)nc2ccccc2c1=O`, the GI50 is > 100 µM (inactive) in assay [8]; > 100 µM (inactive) in [1]; 44.8 µM (inactive) in assay [9]; > 100 µM (inactive) in [2]; > 100 µM (inactive) in assay [3]; > 100 µM (inactive) in assay [4]. Further, the GI50 in [5], in [6] and in assay [7] was > 100 µM (inactive) in each case.
With `Cc1cc(=O)oc2c(C3=NN(C=O)C(c4ccccc4)C3)c(O)ccc12` (configuration not stated), the GI50 was 25.2 µM (inactive) in assay [8]; > 100 µM (inactive) in assay [1]; > 100 µM (inactive) in assay [9]; 24.3 µM (inactive) in [2]; > 100 µM (inactive) in [3]; 18.7 µM (inactive) in assay [4]. For the same compound, the GI50 in assay [5], in assay [6] and in assay [7] was > 100 µM (inactive) in each case.
For the compound `Cc1nc(-c2ccccc2)cc2c1c(=O)oc1ccccc12`, the GI50 in assay [8], in assay [1], in assay [9], in [2], in assay [3] and in [5] was > 100 µM (inactive) in each case. For the same compound, in assay [7], the GI50 was > 100 µM (inactive).
For `CCCNC(=O)c1cc2ccccc2cc1C(=O)OC`, the GI50 in assay [8], in [1], in [9], in assay [2], in [3] and in assay [4] was > 100 µM (inactive) each time. Also, the GI50 in assay [5], in assay [6] and in assay [7] was > 100 µM (inactive) throughout.
For `Cc1nc(Nc2ccc(Cl)cc2)sc1C(=O)NNc1ccc([N+](=O)[O-])cc1[N+](=O)[O-]`, the GI50 in assay [1] was 16.2 µM (inactive); in [9], 14 µM (inactive); in [2], 39.1 µM (inactive); in [3] it was 14.6 µM (inactive); in assay [4], 16.9 µM (inactive); in assay [5], 14.2 µM (inactive). Moreover, the GI50 in assay [6] is 22 µM (inactive); in assay [7], 19.5 µM (inactive).
`CCCCCCCC(=O)OCC1OC(n2cc(F)c(=O)[nH]c2=O)C(N)C(OC(=O)CCCCCCC)C1O` (configuration not stated): the GI50 in [1] is 18.9 µM (inactive); in assay [2], 20 µM (inactive); in [6], 20.2 µM (inactive); in [7] it was 16.6 µM (inactive).
`CCCCOC(=O)NC(=O)c1cn(CCCOC(=O)CCCCCCCCC(=O)OCCCn2cc(C(=O)NC(=O)OCCCC)c(=O)n(C)c2=O)c(=O)n(C)c1=O`: the GI50 in [8], in assay [1], in [2], in [3], in assay [4] and in assay [5] was > 100 µM (inactive) each time. Moreover, the GI50 in [6] and in assay [7] was > 100 µM (inactive) throughout.
As to `CCN(CC)CCOC(c1ccccc1)c1ccccc1.CCOC(=O)Nc1ccc(S(=O)(=O)OC)cc1.CCOC(=O)Nc1ccc(S(=O)(=O)OC)cc1.Nc1ccc(C(=O)O)c(O)c1`, the GI50 in assay [8], in assay [1], in [9], in assay [2], in assay [3] and in assay [5] was > 100 µM (inactive) in each case. For the same compound, the GI50 in assay [6] was > 100 µM (inactive).
Turning to `CCN(CC)C1CC(O[C@H]2C[C@](O)(C(=O)CO)Cc3c(O)c4c(c(O)c32)C(=O)c2c(OC)cccc2C4=O)OC(C)C1O` (some centres not stated), the GI50 is 0.0655 µM (active) in assay [8]; 0.0733 µM (active) in assay [1]; 0.08 µM (active) in assay [2]; 0.0647 µM (active) in [3]; 0.0752 µM (active) in assay [4]; 0.0395 µM (active) in assay [5]. Besides, the GI50 was 0.0484 µM (active) in [6] and < 0.0215 µM (active) in assay [7].
With `Cc1cc(NS(=O)(=O)c2ccc(NC(=O)c3cccn4c(=O)c5ccccc5nc34)cc2)no1`, the GI50 in [8], in assay [1], in [9], in [2], in assay [3] and in [4] was > 100 µM (inactive) in each case. Moreover, the GI50 in assay [5], in [6] and in [7] was > 100 µM (inactive) in each case.
Take `O=c1[nH]c(=O)n(C2OC(CO)C(O)C2O)cc1/N=N/NCc1ccccc1` (configuration not stated): the GI50 in [8] was > 100 µM (inactive); in assay [1], > 100 µM (inactive); in [9], > 100 µM (inactive); in assay [2] it was > 100 µM (inactive); in assay [3] it was > 66.5 µM (inactive); in [4] it was > 100 µM (inactive). For the same compound, the GI50 is > 60.1 µM (inactive) in assay [5], > 100 µM (inactive) in assay [6] and > 71.6 µM (inactive) in assay [7].
Consider `Cc1nc(C(=O)O)c2ccccc2n1`, for which the GI50 in assay [1], in [2], in assay [3], in [5] and in assay [7] was > 100 µM (inactive) each time.
As to `O=C1OC(CC(=O)c2ccc(Cl)c(Cl)c2)C(Cl)=C1Cl` (configuration not stated), the GI50 is > 100 µM (inactive) in [8]; > 100 µM (inactive) in assay [1]; > 100 µM (inactive) in [9]; 52.6 µM (inactive) in assay [3]; 64 µM (inactive) in assay [4]; > 100 µM (inactive) in assay [5]. Moreover, the GI50 in assay [6] and in [7] was > 100 µM (inactive) throughout.
Turning to `CC/C=C/c1cc2c(c3[nH]ccc13)[C@@H](C)CC2C.CC/C=C/c1cc2cc[nH]c2c2c1C(C)C[C@@H]2C.CCc1cc2c(c3[nH]ccc13)[C@@H](C)CC2C` (some centres not stated), the GI50 in assay [1] is 14.8 µM (inactive); in assay [9] it was 13.5 µM (inactive); in [2], 17.2 µM (inactive); in assay [3] it was 16.8 µM (inactive); in assay [5], 13.5 µM (inactive); in assay [6] it was 18.3 µM (inactive). The GI50 in assay [7] was 15.4 µM (inactive).
Take `CCOC(=O)C(C)Sc1nnc(COc2ccccc2OC)n1-c1ccccc1` (configuration not stated): the GI50 is > 100 µM (inactive) in assay [1]; 77.4 µM (inactive) in [9]; > 100 µM (inactive) in assay [2]; 14.1 µM (inactive) in assay [3]; 37.2 µM (inactive) in assay [5]; > 100 µM (inactive) in assay [6]. Further, the GI50 in assay [7] was > 100 µM (inactive).
Consider `Cc1ncc(CCl)c2c1OC(C)(C)OC2`, for which the GI50 in [8] is 30 µM (inactive); in [1], > 100 µM (inactive); in assay [9], 21.1 µM (inactive); in assay [2] it was 39.7 µM (inactive); in [3] it was > 100 µM (inactive); in assay [4] it was 78.2 µM (inactive). The GI50 in [5] was 50.9 µM (inactive); in assay [6] it was 74 µM (inactive).
`COc1ccc(C(=O)c2c(C(C(=O)c3ccc(OC)cc3)C(=O)c3ccc(OC)cc3)n(C(=O)c3ccc(OC)cc3)c3ccccc23)cc1`: the GI50 in assay [1], in [2], in assay [3], in assay [4], in assay [5] and in assay [6] was > 100 µM (inactive) throughout. The GI50 in assay [7] is > 100 µM (inactive).
On to `[O-][S+](Cc1cc2c(cc1Br)OCO2)c1ccccc1` (configuration not stated), for which the GI50 in assay [1] is 71.4 µM (inactive); in assay [9], 41.3 µM (inactive); in assay [2] it was > 100 µM (inactive); in [3], 23.2 µM (inactive); in assay [5], 24.2 µM (inactive); in assay [6] it was 44.5 µM (inactive). The GI50 in assay [7] was 58.9 µM (inactive).
